Results from patent US20070016978A1, “PLANTS HAVING AN ENHANCED RESISTANCE TO NECROTROPHIC PATHOGENS AND METHOD OF MAKING SAME” (priority 2005, published 2007).

Columns and labels:
C. higginsianum [1] = assay: Growth of C. higginsianum in liquid Fries minimal medium; format: cell-based, Colletotrichum higginsianum; conditions: G3P added in minimal medium containing a preferred carbon source like sucrose or glycerol; 10 mM G3P, 5 days, 30° C.
Text: (§1) Several lines of evidence point to G3P levels as being of primary importance. […] Secondly, the gli1 and gly1 plants, with lower levels of G3P, are slightly more susceptible to C. higginsianum.

C. higginsianum [2] = assay: Anthracnose lesion development on Arabidopsis leaves infiltrated with G3P before infection; format: in vivo; conditions: infiltration of G3P into Arabidopsis leaves prior to infection
Procedure: as §1
Inoculation with Peronospora parasitica Emco5 is conducted as described in Kachroo et al., 2001. Inoculation with Colletotrichum higginssianum is carried out by spraying the spores at a concentration of […] and spot inoculating at a concentration of 104-105/ml. After inoculation, the plants are covered with a transparent plastic dome and kept in a growth chamber at 22° C., 65% relative humidity and 14 hour photoperiod. Infections are evaluated every day and scored for disease at 4-6 dpi. Inoculation with Pseudomonas syringae is conducted as described in Shah et al., 2001.

PDF1.2 gene = PDF1.2 gene expression in response to JA (RNA gel blot); format: in vivo, Arabidopsis; conditions: ssi2 fad7 and ssi2 fad7 fad8 plants, 50 μM JA, 48 h post treatment
Procedure: Small-scale extraction of RNA from one or two leaves is performed in the TRIzol reagent (Invitrogen, Gaithersburg, Md.) following the manufacturer's instructions. Northern blot analysis and synthesis of random primed probes for PR-1, PR-2 and PDF1.2 are carried out as described in Kachroo et al., 2001.
(§2) JA treatments are carried out as described in Kachroo et al., 2001.
FIGS. 5(A)-5(I) illustrate glycerol-mediated effects on mutants impaired in various fatty add desaturation (fad) steps and double mutant analysis of ssi2 in different fad backgrounds. […] RNA gel blot analysis was performed on […] of total RNA extracted from 4-week-old soil-grown plants. Ethidium bromide staining of rRNA was used as a loading control. […] The values presented are averages of three replicates. FIG. 5(D) is a plot showing glycerol-induced changes in the 18:1 levels in leaf tissue of four-week-old plants. The ssi2 gly1 and ssi2 act1 plants were used as controls. […] FIG. 5(F) comprises a series of microscopies of trypan blue-stained leaves from ssi2 and various ssi2 fad double- and triple-mutant plants. FIG. 5(G) illustrates expression of the PR-1 and PR-2 genes in wt, ssi2, and various ssi2 fad double and triple mutant plants. […] Samples were harvested 48 h post treatment and analyzed by RNA gel blot analysis performed on 7 μg of total RNA. […]

18:1 levels = assay: Leaf 18:1 content after glycerol application (GC); format: in vivo, Arabidopsis; conditions: wt and plants impaired in the SA signaling pathway, three days after glycerol application
Procedure: (§3) SA and SA glucoside (SAG) are extracted and measured from 0.2-0.3 g of fresh weight leaf tissue, as described in Chandra-Shekara et al., 2004. FA analysis is carried out as described in Dahmer et al., 1989; and He et al., 2002. Lipids are extracted as described in Welti et al., 2002. Lipid profiles and acyl group identification are carried out using an automated electrospray ionization-tandem mass spectrometry facility available at the Kansas Lipidomics Center.
as §2
(§4) Ethidium bromide staining of rRNA used as a loading control. FIG. 3(D) is a graph showing growth of P. parasitica biotype Emco5 on various plant genotypes listed at the left. The Landsberg (Ler) ecotype used as the resistant control. […] The shade of each box indicates the severity of infection, based on the number of sporangiophores per cotyledon (see key at the right). FIG. 3(E) is a plot showing glycerol-induced changes in the 18:1 levels in leaf tissue of 4-week-old plants.

SA and SAG levels = assay: Endogenous SA and SAG levels in leaves of glycerol-treated plants; format: in vivo, Arabidopsis; conditions: for induction in SA levels / induction in the SAG levels: glycerol- versus water-treated, 50 mM glycerol
Procedure: as §3, §2, §4

PR-1 gene = conditions: exogenous application on wt plants; cited from earlier work
[3] = system: Peronospora parasitica biotype Emco5; conditions: glycerol-treated npr1 plants, glycerol 72 h prior to inoculation

Compound: O=P(O)(O)OCC(O)CO (centres unmarked) [G3P, glycerol-3-phosphate]
- inhibition of fungal growth (C. higginsianum [1]): ~3 fold
- necrosis triggered by the fungus at the site of entry (C. higginsianum [2]): significantly reduced necrosis

Compound: CC/C=C\C[C@H]1C(=O)CC[C@@H]1CC(=O)O [JA, jasmonic acid]
- PDF1.2 expression (PDF1.2 gene): basal level expression of PDF1.2

Compound: OCC(O)CO [glycerol]
- leaf 18:1 levels (18:1 levels): drastic reduction in their 18:1 levels
- induction in SA levels (SA and SAG levels; Columbia-O (Col-O) plants): 13 fold
- induction in the SAG levels (SA and SAG levels; Columbia-O (Col-O) plants): 10 fold
- induction in SA levels (SA and SAG levels; Nossen (No) plants): 10 fold
- induction in the SAG levels (SA and SAG levels; Nossen (No) plants): 8 fold
- SA levels upon glycerol treatment, lower than in wt plants (SA and SAG levels; fad7 and fad7 fad8 plants versus glycerol-treated wt): 3 fold
- PR-1 gene expression (PR-1 gene): induction of PR-1 gene expression
- reduction in the number of susceptible plants [3]: about 60%
